Reference: US20080021002A1, “VITAMIN D COMPOUNDS USED TO STABILIZE KIDNEY TRANSPLANTS” (priority 2000, published 2008)

Key:
[1] = system: TIMP 1 mRNA; experiment: Semi-quantitative RT-PCR of renal grafts, TIMP 1 mRNA; assay type: in vivo, rat; conditions: all groups vs untreated allograft recipients, regardless of treatment
Experimental: FIG. 5 is a set of graphs showing that 1,25-(OH)2D3 Treatment Alters MMP and TIMP Expression . […] S26 was used as the housekeeping gene. […] Fold changes are expressed relative to the allogeneic untreated control.
(§1) Semi-quantitative Reverse transcription polymerace chain reaction (RT-PCR): Following graft harvest a […] containing both cortex and medulla was snap frozen in liquid nitrogen. Semi-quantitative RT-PCR was performed as described. Little et al. Transplant Int. 12:393-401, 1999. Briefly, samples were homogenized then total RNA extracted with RNAzol B (Tel Test, Inc., Friendswood, Tex.) and reversed transcribed to cDNA according to manufacturer=s instructions (Superscript, Gibco BRL). PCR was performed over the linear range of amplification for both the gene of interest, e.g. TGFβ-1, and the ribosomal protein S26 as a control housekeeping gene. PCR conditions were chosen such that both products were amplified with similar efficiency. The following cycle parameters were employed: denaturing, 94° C. for 60 seconds; annealing, 61° C. for 60 seconds; and extension, 72° C. for 60 seconds. The amount of product was quantified using a phosphoimager (Storm 80) following gel electrophoresis and Vista green detection.

[2] = system: Smad 3 protein; experiment: Western blot of renal graft lysates, Smad 3 protein; assay type: in vivo, rat; conditions: allogeneic recipients regardless of treatment, vs syngeneic controls (data not shown)
Excerpt: (§2) Renal lysates were subjected to SDS-PAGE and transferred to nitrocellulose membranes. The membranes were probed with specific anti-Smad antibodies and appropriated HRP-conjugated secondary antibodies. Signal was detected with chemilumensnce. Following exposure, x-ray films were scanned and the amount of expression compared to that of tubulin as an internal control using Scion Image software. FIG. 4 (A) describes R-Smad expression. FIG. 4 (B) described I-Smad expression.
(§3) Western Blot Analysis: A portion of the snap frozen graft containing both cortex and medulla was ground with a mortar and pestle. For each 100 mg of tissue, the sample was resuspened in 400 ul of lysis buffer (10 mM Tris base, 150 mM NaCl, pH 8.0) containing protease inhibitors (P2714 1:1000. Sigma Chemical Co., St. Louis, Mo.) and homogenized (PowerGen 125, 1 minute). Triton X100 was then added to 1% and the sample place on ice, for 30 minutes. The solubilized sample was then spun at 4° C. for 15 minutes at 15,000×G. The supernatant was collected and stored at −80° C. Sample protein concentrations were determined using the Micro BCA assay (Pierce Chemical Co., Rockford, Ill.) according to manufacturer=s instructions, except that the assay was performed in half area plates combining 35 μl sample with 70 µl of reagent. […]

[3] = system: Smad 2 mRNA; experiment: Semi-quantitative RT-PCR of renal grafts, Smad 2 mRNA; assay type: in vivo, rat; conditions: vs controls
Experimental: as §1

[4] = system: Smad 7 protein; experiment: Western blot of renal graft lysates, Smad 7 protein; assay type: in vivo, rat; conditions: allogeneic grafts vs untreated allogeneic grafts (FIG. 4B)
Excerpt: as §2, §3

[5] = system: kidney or kidney-pancreas transplant recipients; conditions: human, in vivo
Excerpt: Methodology-retrospective analysis: The University of Wisconsin transplant database was screened to identify any kidney and/or kidney-pancreas transplant recipient who received 1,25-dihydroxyvitamin D3 (calcitriol)peri-post-transplant. Clinical and demographic variables were abstracted from the database. Those patients with adequate follow-up data were included in the analysis (≧1year follow-up data following the initiation of calcitriol). Demographic variables included race, age, and nay history of parathyroidectomy as these patients would likely be receiving calcitriol at time of transplantation. The effect of calcitriol treatment on renal function was analyzed using general linear mixed modeling of the change in slope of renal function prior to and following the start of calcitriol therapy. […] Adverse events and hypercalcemia were noted by identifiers in the database and by serum calcium levels as recorded in the database. Hypercalcemia was defined as a serum calcium >10.5 mg/dl.
The mean serum calcium in Group 1 and Group 2 patients was <10 mg/dl (9.6±0.9 mg/dl). There were no episodes of sustained hypercalcemia (>2 serial hypercalcemia values noted) or hypercalcemia events requiring hospitalization. There were no episodes of substained hematuria that could be directly attributable to hypercalcemia.

[6] = system: MMP 9 mRNA; experiment: Semi-quantitative RT-PCR of renal grafts, MMP 9 mRNA; assay type: in vivo, rat; conditions: all groups vs syngeneic untreated controls, regardless of treatment
Experimental: FIG. 5 is a set of graphs showing that 1,25-(OH)2D3 Treatment Alters MMP and TIMP Expression . […] S26 was used as the housekeeping gene. […]
as §1

[7] = system: Vitamin D receptor mRNA; experiment: Semi-quantitative RT-PCR of renal grafts, vitamin D receptor mRNA; assay type: in vivo, rat
Experimental: as §1, with “12:393-401, 1999.” left out

[8] = system: Smad 2 protein; experiment: Western blot of renal graft lysates, Smad 2 protein; assay type: in vivo, rat; conditions: vs allogeneic untreated controls
Excerpt: as §2, §3

C=C1/C(=C\C=C2/CCC[C@]3(C)[C@@H]([C@H](C)CCCC(C)(C)O)CC[C@@H]23)C[C@@H](O)C[C@@H]1O [calcitriol, 1,25-dihydroxyvitamin D3]
TIMP 1 mRNA expression [1]: decreased
Smad 3 protein levels [2]: similar
Smad 2 mRNA levels [3]: no significant change
Increase in Smad 7 protein levels [4]: 4,3 fold
Episodes of sustained hematuria attributable to hypercalcemia [5]: no episodes
MMP 9 mRNA [6]: increased
Vitamin D receptor mRNA expression ([7]; all treated groups vs untreated syngeneic control (data not shown)): elevated
Vitamin D receptor mRNA expression ([7]; vs untreated allogeneic control (data not shown)): not significantly different
Decrease in Smad 2 protein levels ([8]; 500 ng/rat/day (data not shown)): 208 fold
Decrease in Smad 2 protein levels ([8]; 1000 ng/rat/day, p=0.04): 516 fold
